According to ChEMBL document CHEMBL3507680, “University of Dundee, Gates Library screen for HepG2 cell viability”:

Experiment: Human HepG2 cell viability assay in 384 well format
Format: toxicity, cell-based
Design: dose 125 nL, time 70.5 hour; concentration not given beside the values
Settings: HepG2 cells, read-out: Inhibition

Compound	cytotoxicity at 70.5 h
Cc1nc(-c2cccnc2)ncc1C(=O)N1CCCC(N(C)C)CC1 (configuration not stated)	-20%
CN(C)c1nccc(CNC(=O)NC(C)(C)C)n1	-0.141%
Cc1ccc(NC(=O)N2CCN(Cc3ccccn3)CC2)cc1Cl	30.4%
Cc1nccn1CCCNc1ncccc1C#N	-13.8%
COc1cccc(-c2n[nH]c3c2CN(C(=O)c2ccncc2)CC3)c1	-5.87%
CC(=O)N1CCO[C@@H]2CN(S(=O)(=O)c3cccnc3)C[C@@H]2C1	0.618%
CCNC(=O)C1(Cc2cc(-c3ccc(C)cc3)no2)CCCN(C)C1 (configuration not stated)	-5.63%
O=C(COCc1ccccc1Cl)N1CCCC(n2ccnc2)C1 (configuration not stated)	17.5%
Cc1nccc(CNC(=O)CCc2c(C)nc3cc(O)nn3c2C)n1	-5.73%
O=C(COc1ccc2c(c1)OCO2)NCc1ccco1	-5.95%
CC(C)C[C@H](NC(=O)Cc1csc(-c2cccc(Cl)c2)n1)C(=O)O	19.2%
COc1cc2ccn(CCCO)c(=O)c2cc1F	-6.17%
O=C(Cc1ccccn1)N1CCc2c(O)nc(-c3cnccn3)nc2C1	-6.46%
Cn1ccc(-c2cc(C(=O)N3CCCCC3)c3ccccn23)n1	4.75%
Cc1ccc(-n2c(SCC(=O)O)nnc2-c2ccccc2)cc1	-7.44%
NC(=O)COc1cccc(C(=O)Nc2cnc3n2CCCC3)c1	-5.66%
CC(C)NC(=O)c1noc2c1CN(Cc1cnn(C)c1)CC2	-5.58%
CCC(O)c1nc2c([nH]1)CC(C)(C)CNC2=O (configuration not stated)	13%
CCOCc1nc2c(c(N(C)Cc3nonc3C)n1)CCNCC2	-11.4%

Compound	cytotoxicity at 70.5 h
C1CC(c2noc(C3CC3)n2)CN(Cc2noc(C3CC3)n2)C1 (configuration not stated)	-7.62%
CCOC(=O)c1s/c(=N\C(=O)COc2cnc(C)cc2O)[nH]c1C	-19%
Cc1c(CNC(=O)NCc2cccc(-n3cncn3)c2)cnn1C	-5.57%
O=C(CN1CCCCCC1)NCCSc1cnn[nH]1	0.00682%
N#Cc1ccc(OC2CCN(C(=O)c3ccc4c(c3)OCO4)CC2)nc1	17.3%
Cc1cc(CN(C)S(=O)(=O)N2CCCC2c2ccc(C)o2)no1 (configuration not stated)	-9.33%
Cc1cc(C)c2c(NC(C)c3nncn3C3CCCC3)ncnc2n1 (configuration not stated)	-4.92%
OCCN1CCN(CC(O)c2ccc(OC(F)(F)F)cc2)CC1 (configuration not stated)	-2.1%
COc1cccc(OCC2CCCN(C(=O)c3ncc(F)cc3F)C2)c1 (configuration not stated)	1.3%
CCOC(=O)N1CCC(C(=O)Nc2nnc(C(F)(F)F)[nH]2)CC1	5.31%
Fc1ccccc1-c1nc(CNCCn2cccn2)cs1	-3.88%
COc1nc(C)c(C(=O)N2CCc3[nH]nc(C4CCCC4)c3C2)s1	-2%
CC[C@@H]1N(CC2CCOCC2)CCC[C@]12CCC(=O)N2	-6.16%
O=C(Nc1ccc(F)cc1)N1C[C@H]2CC[C@@H]1CN(Cc1cccnc1)C2	-3.12%
Cc1nc(C)n(CC2CN(Cc3nccs3)Cc3nccn3C2)n1 (configuration not stated)	-2.68%
COCCCNC(=O)NCc1cccn1Cc1ccccc1C	-20.3%
O=C(NCC1CCN(Cc2cc3ccccc3[nH]2)C1)C1CCCCC1 (configuration not stated)	-19.6%
CCn1nc(C)c2nc(C(C)C)nc(N3CCOCC3)c21	11.2%
O=C(CCc1ccc(Cl)s1)N1CCCC(n2cncn2)C1 (configuration not stated)	11.3%

Compound	cytotoxicity at 70.5 h
CCS(=O)(=O)NCCNCc1ccc(Cl)c2cccnc12	-0.568%
Cc1ccc(-c2cc(C(=O)O)sn2)cc1	-15.1%
Cc1cc(-c2cc(F)ccc2C(=O)O)nc(C2CCCN(C)C2)n1 (configuration not stated)	2.71%
O=C(COc1ccccc1)NS(=O)(=O)Cc1ccccc1	-1.17%
c1ccc2c(c1)nnn2CCCNC1CCOC2(CCOCC2)C1 (configuration not stated)	-5%
Cc1nn2c(NC(=O)CSc3nccn3C)csc2nc1=O	6.49%
CCOc1cc(NC(=O)C2CC(=O)N(c3cccc(OC)c3)C2)ncn1 (configuration not stated)	-2.94%
CS(=O)(=O)NC[C@H]1OC[C@@H](NC2CCC(F)(F)CC2)[C@@H]1O	-5.87%
Nc1cncc(C(=O)N2Cc3ccccc3OC3(CCOCC3)C2)c1	7.99%
Clc1snnc1CN1CCCCC1Cn1cccn1 (configuration not stated)	26.2%
COc1ccc(C[C@H]2CN(C(=O)CN(C)C)CC[C@H]2OC)cc1	-6.67%
CC(C)Oc1cccc(CNC(=O)NC(C)(C(=O)O)c2ccco2)c1 (configuration not stated)	-0.448%
Cc1csc(C(C)(C)NCC(=O)N(C)Cc2ccc(C)o2)n1	4.78%
CCn1c(CN(C)C)nnc1C1CCN(c2nccc(NC)n2)CC1	-2.22%
CC(C)(C)c1csc(CCNC(=O)C(c2ccccc2)n2cnnn2)n1 (configuration not stated)	-0.915%
CC[C@@H]1N(Cc2ccsc2)CCC[C@]12CCC(=O)N2C	18.9%
O=C(CSc1nncs1)N1CCN(Cc2ccc(Cl)cc2)CC1	1.53%
Cc1ccn2ncc(C(=O)N3CCCC(n4cccn4)C3)c2n1 (configuration not stated)	-0.891%
Cc1sc(Oc2ccccc2Cl)nc1C(=O)O	7.28%
